In patent US6638531B1, “Antimicrobial peptides” (priority 1998, dated 2003):
Values after ≈ are worked out from the molar mass of the structure shown. Marks after values point to notes of the source that are not given here. Where no end group is shown, it is not given here.

What was measured:
Candida albicans 32354 = assay: microbe, parasite or virus in culture
Method: (§1) 5*10^6 cells of Candida pseudotropicalis, Candida albicans 10231, Cryptococcus neoformans, Candida krusei, Candida parapsilosis, Candida glabrata and Candida albicans 32354 and an ergosterol-deficient mutant thereof were incubated for one and a half hours at 37° C. in the presence of a dilution series of a peptide according to the invention or amphotericin B in 1 mM potassium phosphate buffer, pH 7.0. The viability was determined by plating out. Used as positive control was synthetic PGLa (“Protein beginning with Glycine and ending with Leucin-amide”, with the amino acid sequence […]-amide).

Candida krusei = assay: microbe, parasite or virus in culture; conditions: for IC50 values (50% of the inoculum is killed): pH 7
Method: as §1

Candida pseudotropicalis = assay: microbe, parasite or virus in culture; conditions: for IC50 values (50% of the inoculum is killed): pH 7
Method: as §1

Candida albicans 10231 = assay: microbe, parasite or virus in culture; conditions: for IC50 values (50% of the inoculum is killed): 10231, pH 7
Method: as §1

Cryptococcus neoformans = assay: microbe, parasite or virus in culture; conditions: for IC50 values (50% of the inoculum is killed): pH 7
Method: as §1

Candida glabrata = assay: microbe, parasite or virus in culture; conditions: for IC50 values (50% of the inoculum is killed): pH 7
Method: as §1

Candida parapsilosis = assay: microbe, parasite or virus in culture; conditions: for IC50 values (50% of the inoculum is killed): pH 7
Method: as §1

[1] = system: Candida albicans 32354, ergosterol-deficient mutant; assay: Killing of yeasts; format: cell-based; conditions: pH 7, read-out: IC50 values (50% of the inoculum is killed)
Method: as §1

[2] = system: Fusobacterium nucleatum (ATCC 10953); assay: Antibacterial activity against monocultures in vitro (viability counts); format: cell-based; conditions: 0.5 h, 100 μg/ml
Method: (§2) Monocultures of the bacteria Streptococcus mutans (R9), Strentococcus sanguis (SB 179), Streptococcus salivarius (SS 196), Actinomyces naeslundii (WVU 627), Fusobacterium nucleatum (ATCC 10953), Prevotella intermedia ([…]) and Veillonella parvula (ATCC 17745) were cultured to a late log phase in BHI (Difco), washed three times in 10 mM potassium phosphate buffer (PPB) and diluted to a suspension of 10^6 CFU/ml. […] The control treatment was performed in 10 mM without peptide.

[3] = system: Streptococcus salivarius (SS 196); assay: as above; format: cell-based; conditions: 0.5 h, 100 μg/ml
Method: as §2

[4] = system: Streptococcus mutans (R9); assay: as above; format: cell-based; conditions: 0.5 h, 100 μg/ml
Method: as §2

[5] = system: Actinomyces naeslundii (WVU 627); assay: as above; format: cell-based; conditions: 0.5 h, 100 μg/ml
Method: as §2

[6] = system: Strentococcus sanguis (SB 179); assay: as above; format: cell-based; conditions: Streptococcus sanguis, 0.5 h, 100 μg/ml
Method: as §2

[7] = system: Veillonella parvula (ATCC 17745); assay: as above; format: cell-based; conditions: 0.5 h, 100 μg/ml
Method: as §2

Streptococcus mutans = assay: Inhibition of lactic acid production; format: cell-based; conditions: S. mutans; 1 hour in 10 mM PPB with glucose
Method: (§3) All peptides according to the invention were tested for their capacity to inhibit the lactic acid production of the bacteria Streptococcus sanguis, Streptococcus mutans, Streptococcus salivarius and Lactobacillus rhamnosus. The formation of lactic acid is a measure for the metabolic activity. For this purpose cultures of bacteria cells were incubated for 1 hour in 10 mM PPB with 0.5 glucose and different concentrations of the peptides. The formation of lactic acid was monitored by means of spectrophotometry.

Lactobacillus rhamnosus = assay: Inhibition of lactic acid production; format: cell-based; conditions: L. rhamnosus; 1 hour in 10 mM PPB with glucose
Method: as §3

Streptococcus salivarius = assay: Inhibition of lactic acid production; format: cell-based; conditions: S. salivarius; 1 hour in 10 mM PPB with glucose
Method: as §3

Streptococcus sanguis = assay: Inhibition of lactic acid production; format: cell-based; conditions: S. sanguis; 1 hour in 10 mM PPB with glucose
Method: as §3

[8] = system: meticillin-resistant Staphylococcus aureus (MRSA); assay: Growth inhibition on agar with spotted peptide; format: cell-based; design: key: “+” designates full growth inhibition; “+/−” designates partial inhibition; “−” signifies no inhibition; conditions: 10 μg peptide spotted
Method: (§4) The growth of the yeast Candida albicans, Torulopsis glabrata and meticillin-resistant Staphylococcus aureus (MRSA) was tested by growing them on agar on which 10 μg of each of the peptides according to the invention was spotted. […] “+” designates full growth inhibition, “+/−” designates partial inhibition and “−” signifies no inhibition.

Candida albicans = assay: Growth inhibition on agar with spotted peptide; format: cell-based; design: key: “+” designates full growth inhibition; “+/−” designates partial inhibition; “−” signifies no inhibition; conditions: C. albicans on agar, 10 μg peptide spotted
Method: as §4

Torulopsis glabrata = assay: Growth inhibition on agar with spotted peptide; format: cell-based; design: key: “+” designates full growth inhibition; “+/−” designates partial inhibition; “−” signifies no inhibition; conditions: T. glabrata on agar, 10 μg peptide spotted
Method: as §4

[9] = system: Prevotella intermedia (T588); assay: Antibacterial activity against monocultures in vitro (viability counts); format: cell-based; conditions: 0.5 h, 100 μg/ml
Method: as §2

[10] = system: bacteria from cultured plaque; assay: Antimicrobial activity on oral bacteria; format: cell-based; conditions: 0.5 h, 100 μg/ml
Excerpt: (§5) In order to determine whether the peptides according to the invention are also active against bacteria such as are encountered in the mouth, bacteria were collected from saliva and plaque. Saliva was shaken on a vortex mixer and centrifuged.

[11] = system: bacteria from disrupted plaque; assay: Antimicrobial activity on oral bacteria; format: cell-based; conditions: 0.5 h, 100 μg/ml
Excerpt: as §5

[12] = system: bacteria collected from plaque; assay: Antimicrobial activity on oral bacteria; format: cell-based; conditions: 0.5 h, 100 μg/ml
Excerpt: as §5

[13] = system: bacteria collected from saliva; assay: Antimicrobial activity on oral bacteria; format: cell-based; conditions: 0.5 h, 100 μg/ml
Excerpt: as §5

Salmonella typhimurium = assay: Killing of Salmonella by peptide 10 (CFU over time); format: cell-based; conditions: 50 μg/ml, culture with 10^4 Salmonella typhimurium, CFU at 0, 1, 2 and 3 hours (FIG. 3A)
Method: (§6) Peptide 10 was added in a concentration of 50 μg/ml to a culture with 10^4 Salmonella typhimurium bacteria. For control purposes a culture to which nothing was added was included as blank. The number of CFU was determined at the points in time 0, 1, 2 and 3 hours. The same was done with Yersinia enterocolitica (PYv+). […] Particular peptides are also found to have a killing effect on micro-organisms which are resistant to antimicrobial agents used at present.

[14] = system: Yersinia enterocolitica (PYv+); assay: Killing of Yersinia by peptide 10 (CFU over time); format: cell-based; conditions: 50 μg/ml, CFU at 0, 1, 2 and 3 hours (FIG. 3B)
Method: as §6

Molecule | % reduction in viability counts [2] | % reduction in viability counts [3] | % reduction in viability counts [4] | % reduction in viability counts [5] | % reduction in viability counts [6] | % reduction in viability counts [7] | inhibition of lactic acid production (Streptococcus mutans) | inhibition of lactic acid production (Lactobacillus rhamnosus) | inhibition of lactic acid production (Streptococcus salivarius) | inhibition of lactic acid production (Streptococcus sanguis) | growth inhibition [8] | growth inhibition (Candida albicans) | growth inhibition (Torulopsis glabrata) | % reduction in viability counts [9] | IC50 values (50% of the inoculum is killed) (Candida krusei) [µg/mL] | IC50 values (50% of the inoculum is killed) (Candida pseudotropicalis) [µg/mL] | IC50 values (50% of the inoculum is killed) (Candida albicans 10231) [µg/mL] | IC50 values (50% of the inoculum is killed) (Cryptococcus neoformans) [µg/mL] | IC50 values (50% of the inoculum is killed) (Candida glabrata) [µg/mL] | IC50 values (50% of the inoculum is killed) (Candida parapsilosis) [µg/mL] | other results
C[C@@H]1[C@H](O)[C@@H](C)/C=C/C=C/C=C/C=C/C=C/C=C/C=C/[C@H](O[C@@H]2O[C@H](C)[C@@H](O)[C@H](N)[C@@H]2O)C[C@@H]2O[C@](O)(C[C@@H](O)C[C@@H](O)[C@H](O)CC[C@@H](O)C[C@@H](O)CC(=O)O[C@H]1C)C[C@H](O)[C@H]2C(=O)O [amphotericin B] |  |  |  |  |  |  |  |  |  |  |  |  |  |  |  |  |  |  |  |  | IC50 (Candida albicans 32354; Candida albicans, 32354, pH 7, read-out: IC50 values (50% of the inoculum is killed)): 2 µg/mL (≈ 2.16 µM); IC50 (Candida krusei; Pichia kudriavzevii, pH 7, read-out: IC50 values (50% of the inoculum is killed)): > 70 µg/mL; IC50 (Candida pseudotropicalis; Kluyveromyces marxianus, pH 7, read-out: IC50 values (50% of the inoculum is killed)): 8 µg/mL (≈ 8.66 µM); IC50 (Candida albicans 10231; Candida albicans, 10231, pH 7, read-out: IC50 values (50% of the inoculum is killed)): 1 µg/mL (≈ 1.08 µM); IC50 (Cryptococcus neoformans; Cryptococcus neoformans, pH 7, read-out: IC50 values (50% of the inoculum is killed)): 1 µg/mL (≈ 1.08 µM); IC50 (Candida glabrata; Nakaseomyces glabratus, pH 7, read-out: IC50 values (50% of the inoculum is killed)): 2 µg/mL (≈ 2.16 µM); IC50 (Candida parapsilosis; Lodderomyces parapsilosis, pH 7, read-out: IC50 values (50% of the inoculum is killed)): 6 µg/mL (≈ 6.49 µM); IC50 [1]: > 70 µg/mL
C[C@H](NC(=O)[C@H](Cc1cnc[nH]1)NC(=O)[C@H](CO)NC(=O)[C@@H](N)CC(=O)O)C(=O)N[C@@H](CCCCN)C(=O)N[C@@H](CCCNC(=N)N)C(=O)N[C@@H](Cc1cnc[nH]1)C(=O)N[C@@H](Cc1cnc[nH]1)C(=O)NCC(=O)N[C@@H](Cc1ccc(O)cc1)C(=O)N[C@@H](CCCCN)C(=O)N[C@@H](CCCNC(=N)N)C(=O)N[C@@H](CCCCN)C(=O)N[C@@H](Cc1ccccc1)C(=O)N[C@@H](Cc1cnc[nH]1)C(=O)N[C@@H](CCC(=O)O)C(=O)N[C@@H](CCCCN)C(=O)N[C@@H](Cc1cnc[nH]1)C(=O)N[C@@H](Cc1cnc[nH]1)C(=O)N[C@@H](CO)C(=O)N[C@@H](Cc1cnc[nH]1)C(=O)N[C@@H](CCCNC(=N)N)C(=O)NCC(=O)N[C@@H](Cc1ccc(O)cc1)C(=O)O [histatin 5, reference compound] | 49.3% | 38.3% | −49.5% | −11.6% | 69.5% | 26.9% | − (“−” signifies no inhibition of lactic acid formation at >100 μg/ml peptide) | − (“−” signifies no inhibition of lactic acid formation at >100 μg/ml peptide) | − (“−” signifies no inhibition of lactic acid formation at >100 μg/ml peptide) | − (“−” signifies no inhibition of lactic acid formation at >100 μg/ml peptide) | − | − | − |  |  |  |  |  |  |  | 
GHMASKGAIAGKIAKVALKAL-NH2 [positive control peptide] | >99.9* % | >99.9* % | >99.9% | >99.9* % | >99.9* % | >99.9* % |  |  |  |  |  |  |  | 98.0% | 1 | 1 | 1 | 0.5 | 9 | 1 | IC50 values (50% of the inoculum is killed) (Candida albicans 32354; 32354, pH 7): 1 µg/mL; % reduction in viability counts, total Gram-negative average [10]: 83.7%; % reduction in viability counts, total aerobic average [10]: 20.6%; % reduction in viability counts, total anaerobic average [10]: 87.2%; % reduction in viability counts, total Gram-negative average [11]: 45.9%; % reduction in viability counts, total aerobic average [11]: 41.7%; % reduction in viability counts, total anaerobic average [11]: 68.5%; % reduction in viability counts, total Gram-negative average [12]: 84.0%; % reduction in viability counts, total aerobic average [12]: 58.5%; % reduction in viability counts, total anaerobic average [12]: 51.5%; % reduction in viability counts, total Gram-negative average [13]: 97.7%; % reduction in viability counts, total aerobic average [13]: 60.1%; % reduction in viability counts, total anaerobic average [13]: 73.2%
KRLFKELKFSLRKY-OH [peptide 3, KRLFKELKFSLRKY] | 92.9 (3.00)* % | >99.9* % | >99.9* % | >99.9* % | 99.6 (0.30)* % | >99.9* % | + (“+” designates full inhibition at 4-20 μg/ml peptide) | + (“+” designates full inhibition at 4-20 μg/ml peptide) | + (“+” designates full inhibition at 4-20 μg/ml peptide) | + (“+” designates full inhibition at 4-20 μg/ml peptide) | +/− | + | + | −57.8 (77.9) % |  |  |  |  |  |  | 
SSSKEENRIIPGGI [negative control, SSSKEENRIIPGGI] |  |  |  |  |  |  |  |  |  |  |  |  |  |  | >67 | >67 | >67 | >67 | >67 | >67 | 
KRLFKKLLFSLRKY [peptide 10, KRLFKKLLFSLRKY] |  |  |  |  |  |  | + (“+” designates full inhibition at 4-20 μg/ml peptide) | + (“+” designates full inhibition at 4-20 μg/ml peptide) | + (“+” designates full inhibition at 4-20 μg/ml peptide) | + (“+” designates full inhibition at 4-20 μg/ml peptide) | + | + | + |  |  |  |  |  |  |  | number of bacteria (CFU) after adding peptide (Salmonella typhimurium): below the detection limit; number of bacteria (CFU) after adding peptide [14]: below the detection limit
